PMC8894927, “Oxylipin signaling in salt-stressed soybean is modulated by ligand-dependent interaction of Class II acyl-CoA-binding proteins with lipoxygenase” (The Plant Cell, 2021)
Values joined by “and” are separate entries in the source; they are usually repeats but may differ in a detail not shown here. Equal values may be shown once. Each block holds one compound with its values, some of them ahead of it.

Experiments:
[1] = molecular target: (His)6-GmACBP4.1_33–354 (WT or Y135A mutant); test: Protein–lipid bead binding assay with competing acyl-CoA (PA beads); set-up: species or system soybean
[2] = tested on: GmACBP4.1_33–354 interaction with VLXB:StrepII; test: Strep-Tactin pull-down assay with supplemented acyl-CoAs; format: binding, soybean; settings: acyl-CoA 12.5–100 μM, versus control without acyl-CoA
GmACBP4.1_33–354 (WT) = molecular target: T1, GmACBP4.1_33–354 (WT) (Glycine max, UniProt I1KAV2); settings: SEM, n = 3
T1 construct: gene LOC100816670
T1 sequence (I1KAV2 33-354): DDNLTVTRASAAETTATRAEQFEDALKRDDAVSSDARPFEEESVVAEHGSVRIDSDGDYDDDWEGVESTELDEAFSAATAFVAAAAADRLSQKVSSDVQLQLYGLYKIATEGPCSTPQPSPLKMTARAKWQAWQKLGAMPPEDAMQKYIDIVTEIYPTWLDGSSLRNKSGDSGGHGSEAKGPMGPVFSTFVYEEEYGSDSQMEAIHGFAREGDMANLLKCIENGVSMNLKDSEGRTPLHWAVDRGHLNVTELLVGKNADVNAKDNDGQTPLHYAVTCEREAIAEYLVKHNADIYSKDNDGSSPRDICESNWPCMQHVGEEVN
Excerpt: The liposome-associated protein fraction was quantified densitometrically. […] D, Protein–lipid bead binding assays with competing acyl-CoAs. […] Bound and unbound WT (left panel) and Y135A (middle panel) were detected by immunoblotting using anti-GsACBP3 antibodies. Input lanes represent 50% protein. Arrowheads indicate target bands. The PA-bound protein fraction was quantified densitometrically. The half maximal inhibitory concentration (IC50) of the WT is the mean ± SEM from three independent experiments.
To validate this assumption, the binding of the WT and Y135A mutant to PA beads was investigated in the presence of C18:2-CoA (Figure 5, D).
After three washes in the same buffer, bound proteins were eluted with 6× Laemmli sample buffer. Protein binding on filter strips, liposomes, and PA beads was detected by immunoblotting using anti-ACBP3.1 antibodies.

AtACBP1 = molecular target: AtACBP1; set-up: method as in Xue et al., 2014; settings: ref Xue et al., 2014; cited from earlier work
[3] = tested on: GmACBP4.1_33–354 interaction with GmPLDα1:StrepII; test: Strep-Tactin pull-down assay with supplemented acyl-CoAs; format: binding, soybean; settings: acyl-CoA 12.5–100 μM, versus control without acyl-CoA
Excerpt: Figure 6 Specific acyl-CoA species facilitate GmACBP4 interaction with VLXB and GmPLDα1. A, Strep-Tactin pull-down assays. […] (His)6-GmACBP4.1_33–354 were detected in eluates by immunoblotting using anti-ACBP3 antibodies. […] Input lanes represent 1% protein. Arrowheads indicate target bands of 40-kD (His)6-GmACBP4.1_33–354 (apparent: 50 kD). The bound protein fraction was quantified densitometrically. […] B–C, Strep-Tactin pull-down assays with supplemented acyl-CoAs. […] Input lanes represent 5% proteins in (B) or 10% proteins in (C). Arrowheads indicate target bands of 40-kD (His)6-GmACBP4.1_33–354 (apparent: 50kD).
Strep-Tactin pull-down assays were performed using Strep-Tactin XT resins (IBA) following the manufacturer’s instructions. Briefly, 5 μL of resins with/without prebound VLXB:StrepII or GmPLDα1:StrepII (0.5 μM) were agitated with GmACBP4.1_33–354 (0.5 μM) and acyl-CoAs (0, 12.5, 25, 50, and 100 μM) in Buffer W containing 0.1 M Tris–HCl (pH 7), 0.15 M NaCl, 1 mM EDTA and 0.05% (w/v) Triton X-100 at 4°C for 2 h. After three washes in Buffer W, bound proteins were eluted in Buffer W with 50 mM biotin, and analyzed by immunoblotting using anti-ACBP3.1 antibodies.

(His)6-GmACBP4.1_33–354 [4] = test: Isothermal titration calorimetry of acyl-CoA binding (WT protein); set-up: species or system soybean; settings: ITC at 25°C; 15 μM protein titrated with 200 μM acyl-CoA; mean ± SD, three experiments; read-out: KD, dissociation constant
Method: ITC was conducted with a MicroCal iTC200 system (GE Healthcare) at 25°C in 10 mM sodium phosphate (pH 7) by 20 injections of 1.8-μL acyl-CoAs (200 μM; Avanti Polar Lipids Inc., Alabaster, AL, USA) into the sample cell with 15 μM purified (His)6-GmACBP4.1. Each injection lasted 4 s at 150-s intervals with a stirring speed of 1,000 rpm. Nonspecific heat effects were estimated and corrected after saturation. The baseline was adjusted, and the data were fitted into a single-site binding model using the Origin version 7.0 software (OriginLab).
Supplemental Table 1. Binding constants and thermodynamic parameters for (His)6-GmACBP4.133–354 interaction with acyl-CoAs. (Supports Figure 5A) […]
Isothermal titration calorimetry analysis was performed by titration of 250 μL of 15 μM (His)6-GmACBP4.133–354 with […]
from three independent experiments. n, stoichiometry (number of ligand sites per protein); KD, dissociation constant; ∆H, enthalpy change; −T∆S, entropy change; ∆G, Gibbs free energy.

(His)6-GmACBP4.1_33–354 [5] = test: Protein–lipid overlay assay; format: binding, soybean; settings: commercial strips and PA-spotted nitrocellulose strips; 0.5 μg mL−1 protein
(His)6-GmACBP3.1_33–346 = test: Protein–lipid overlay assay; format: binding, soybean; settings: commercial strips with 15 neutral and polar lipids; 0.5 μg mL−1 protein
(His)6-GmACBP4.1_33–354 [6] = test: Liposome association assay for PA binding; set-up: species or system soybean; settings: PA:di-16:0-PC liposomes, 0–100% (w/w) PA
[7] = tested on: AtACBP2 interaction with LYSOPL2; set-up: method as in Miao et al., 2019; settings: ref Miao et al., 2019; cited from earlier work

Compound: CCCCC/C=C\C/C=C\CCCCCCCC(=O)SCCNC(=O)CCNC(=O)[C@H](O)C(C)(C)COP(=O)(O)OP(=O)(O)OC[C@H]1O[C@@H](n2cnc3c(N)ncnc32)[C@H](O)[C@@H]1OP(=O)(O)O [C18:2-CoA, linoleoyl-CoA]
IC50 ([1]; WT protein 2.5 μg mL−1, 1 μM PA beads, competing C18:2-CoA, mean ± SEM, three experiments, read-out: half maximal inhibitory concentration (IC50) for PA-bound WT fraction): 22900 nM
effect on Y135A binding to PA beads ([1]; Y135A mutant, compared with WT): less affected
increase in WT binding with VLXB:StrepII [2]: up to four-fold
IC50 (GmACBP4.1_33–354 (WT)): 22900 nM
Kd (AtACBP1): 400 to 800 nM
increase in WT binding with GmPLDα1:StrepII [3]: did not influence
Kd ((His)6-GmACBP4.1_33–354 [4]): 920 nM and 900 to 1200 nM

binding on lipid filter strips ((His)6-GmACBP4.1_33–354 [5]): sole ligand
binding on lipid filter strips ((His)6-GmACBP3.1_33–346): sole ligand
descending order of affinity to the WT (liposome association) ((His)6-GmACBP4.1_33–354 [6]; listed as 32:0-PA): relatively higher affinity
Compound: CCCCCCCCCCCCCCCC(=O)OCC(COP(=O)(O)O)OC(=O)CCCCCCCCCCCCCCC (stereo not drawn) [di-16:0-PA]
descending order of affinity to the WT (liposome association) ((His)6-GmACBP4.1_33–354 [6]): di-16:0-PA ≈ di-18:1-PA > di-18:0-PA > di-14:0-PA

Compound: lysophosphatidylcholine
fold higher affinity of AtACBP2 for LYSOPL2 interaction when complexed with the ligand [7]: 10 fold
